The values below are quoted from earlier work in article PMC9576820 (The Journal of membrane biology, 2022).

The test system of this data set is host cells, proteases, serum proteins.

With RRGWALRLVLAY [ARVA], the “inhibition of antimicrobial activity by host factors” value was “potently inhibited by host cell binding, proteolysis, and serum protein binding”.
